According to patent publication US6737383B1, “Herbicidal oxadiazolidines” (priority 1999, dated 2004):

Columns and labels:
corn = test: Test B pre/postemergence corn; assay type: in vivo, Zea mays
How it was run: (§1)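 Herbicidal effect was estimated by eye on a ten-point control scale after plants spent twelve to sixteen days in a greenhouse following soil or foliar treatment. Foliar sprays targeted plants at one to four leaves; all doses were formulated in a non-phytotoxic solvent with surfactant.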

rice = test: Test B flood test rice; assay type: in vivo, Oryza sativa
How it was run: (§2)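 Each value is a visual injury score relative to controls, with 10 meaning complete control and 0 no effect. Evaluation took place twelve to sixteen days after the 2-leaf-stage plants were treated and kept in the greenhouse.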

velvetleaf = test: Test B pre/postemergence velvetleaf; assay type: in vivo, Abutilon theophrasti
How it was run: as §1

blackgrass = test: Test B pre/postemergence blackgrass; assay type: in vivo, Alopecurus myosuroides
How it was run: as §1

duck salad = test: Test B flood test duck salad; assay type: in vivo, Heteranthera limosa
How it was run: as §2

wild oat = test: Test B pre/postemergence wild oat; assay type: in vivo, Avena fatua
How it was run: as §1

purple nutsedge = test: Test B pre/postemergence purple nutsedge; assay type: in vivo, Cyperus rotundus
How it was run: as §1

morningglory = test: Test B pre/postemergence morningglory; assay type: in vivo, Ipomoea hederacea
How it was run: as §1

wheat = test: Test B pre/postemergence wheat; assay type: in vivo, Triticum aestivum
How it was run: as §1

surinam grass = test: Test B pre/postemergence surinam grass; assay type: in vivo, Brachiaria decumbens
How it was run: as §1

bamyardgrass = test: Test B flood test barnyardgrass; assay type: in vivo, Echinochloa crus-galli
How it was run: as §2

giant foxtail = test: Test B pre/postemergence giant foxtail; assay type: in vivo, Setaria faberii
How it was run: as §1

cocklebur = test: Test B pre/postemergence cocklebur; assay type: in vivo, Xanthium strumarium
How it was run: as §1

smallflower flatsedge = test: Test B flood test smallflower flatsedge; assay type: in vivo, Cyperus difformis
How it was run: as §2

crabgrass = test: Test B pre/postemergence crabgrass; assay type: in vivo, Digitaria sanguinalis
How it was run: as §1

[1] = Postemergence, Rate 62 g/ha, scale 0 to 10, 0 is no effect, 10 is complete control
[2] = Postemergence, Rate 125 g/ha, scale of 0 to 10 where 0 is no effect and 10 is complete control
[3] = Postemergence, Rate 250 g/ha, scale of 0 to 10, 0 is no effect, 10 is complete control
[4] = Postemergence, Rate 500 g/ha, scale of 0 to 10 where 0 is no effect and 10 is complete control
[5] = Preemergence, Rate 62 g/ha, scale of 0 to 10 where 0 is no effect and 10 is complete control
[6] = Preemergence, Rate 125 g/ha, scale of 0 to 10 where 0 is no effect and 10 is complete control
[7] = Preemergence, Rate 250 g/ha, scale 0 to 10 (0 no effect, 10 complete control)
[8] = Preemergence, Rate 500 g/ha, scale of 0 to 10 where 0 is no effect and 10 is complete control
[9] = Rate 62 g/ha, flood test species, Pre-emergence, visual evaluation after twelve to sixteen days
[10] = Rate 125 g/ha, under heading Pre-emergence, flood test species, visual evaluation after twelve to sixteen days
[11] = Rate 250 g/ha, Pre-emergence (flood test species), scale 0 to 10, 0 is no effect, 10 is complete control
[12] = Rate 500 g/ha, Pre-emergence section of Table B, 0 to 10 scale (0 no effect, 10 complete control)

SMILES: CC(C)N(C(=O)n1oc(=O)n(CC(=O)C2CCC2)c1=O)c1ccc(Cl)cc1 [Compound 643]
- Plant response rating, Corn (corn; [1]): 0
- Corn plant response rating (corn; [2]): 0
- Corn plant response rating (corn; [3]): 0
- Plant response rating, Corn (corn; [4]): 0
- Corn plant response rating (corn; [5]): 0
- Corn plant response rating (corn; [6]): 0
- Plant response rating, Corn (corn; [7]): 0
- Plant response rating, Corn (corn; [8]): 0
- Plant response rating, Rice (0 to 10 scale, 0 is no effect, 10 is complete control) (rice; [9]): 0
- Rice plant response rating (0 to 10 scale, 0 is no effect, 10 is complete control) (rice; [10]): 0
- Rice plant response rating (rice; [11]): 0
- Rice plant response rating (rice; [12]): 0
- Plant response rating, Velvetleaf (velvetleaf; [1]): 0
- Velvetleaf plant response rating (velvetleaf; [2]): 0
- Velvetleaf plant response rating (velvetleaf; [3]): 0
- Velvetleaf plant response rating (velvetleaf; [5]): 0
- Velvetleaf plant response rating (velvetleaf; [6]): 0
- Plant response rating, Velvetleaf (velvetleaf; [7]): 0
- Plant response rating, Velvetleaf (velvetleaf; [8]): 0
- Plant response rating, Blackgrass (blackgrass; [1]): 0
- Blackgrass plant response rating (blackgrass; [2]): 0
- Blackgrass plant response rating (blackgrass; [3]): 0
- Plant response rating, Blackgrass (blackgrass; [4]): 4
- Blackgrass plant response rating (blackgrass; [5]): 0
- Blackgrass plant response rating (blackgrass; [6]): 0
- Plant response rating, Blackgrass (blackgrass; [7]): 0
- Plant response rating, Blackgrass (blackgrass; [8]): 8
- Plant response rating, Ducksalad (0 to 10 scale, 0 is no effect, 10 is complete control) (duck salad; [9]): 0
- Ducksalad plant response rating (0 to 10 scale, 0 is no effect, 10 is complete control) (duck salad; [10]): 0
- Ducksalad plant response rating (duck salad; [11]): 0
- Ducksalad plant response rating (duck salad; [12]): 0
- Plant response rating, Wild oats (wild oat; [1]): 0
- Wild oats plant response rating (wild oat; [2]): 1
- Wild oats plant response rating (wild oat; [3]): 1
- Wild oats plant response rating (wild oat; [5]): 0
- Wild oats plant response rating (wild oat; [6]): 0
- Plant response rating, Wild oats (wild oat; [7]): 0
- Plant response rating, Wild oats (wild oat; [8]): 1
- Plant response rating, Nutsedge (purple nutsedge; [1]): 0
- Nutsedge plant response rating (purple nutsedge; [2]): 0
- Nutsedge plant response rating (purple nutsedge; [3]): 0
- Plant response rating, Nutsedge (purple nutsedge; [4]): 0
- Nutsedge plant response rating (purple nutsedge; [5]): 0
- Nutsedge plant response rating (purple nutsedge; [6]): 0
- Plant response rating, Nutsedge (purple nutsedge; [7]): 0
- Plant response rating, Nutsedge (purple nutsedge; [8]): 0
- Plant response rating, Morningglory (morningglory; [1]): 0
- Morningglory plant response rating (morningglory; [2]): 4
- Morningglory plant response rating (morningglory; [3]): 4
- Plant response rating, Morningglory (morningglory; [4]): 6
- Morningglory plant response rating (morningglory; [5]): 0
- Morningglory plant response rating (morningglory; [6]): 0
- Plant response rating, Morningglory (morningglory; [7]): 0
- Plant response rating, Morningglory (morningglory; [8]): 0
- Plant response rating, Wheat (wheat; [1]): 0
- Wheat plant response rating (wheat; [2]): 0
- Wheat plant response rating (wheat; [3]): 0
- Wheat plant response rating (wheat; [5]): 0
- Wheat plant response rating (wheat; [6]): 0
- Plant response rating, Wheat (wheat; [7]): 0
- Plant response rating, Wheat (wheat; [8]): 0
- Plant response rating, B. signalgrass (surinam grass; [1]): 0
- Plant response rating, B. signalgrass (surinam grass; [2]): 0
- B. signalgrass plant response rating (surinam grass; [3]): 0
- Plant response rating, B. signalgrass (surinam grass; [4]): 2
- B. signalgrass plant response rating (surinam grass; [5]): 0
- B. signalgrass plant response rating (surinam grass; [6]): 2
- Plant response rating, B. signalgrass (surinam grass; [7]): 2
- Plant response rating, B. signalgrass (surinam grass; [8]): 6
- Plant response rating, Barnyardgrass (0 to 10 scale, 0 is no effect, 10 is complete control) (bamyardgrass; [9]): 0
- Barnyardgrass plant response rating (0 to 10 scale, 0 is no effect, 10 is complete control) (bamyardgrass; [10]): 0
- Barnyardgrass plant response rating (bamyardgrass; [11]): 0
- Barnyardgrass plant response rating (bamyardgrass; [12]): 0
- Plant response rating, Giant foxtail (giant foxtail; [1]): 0
- Giant foxtail plant response rating (giant foxtail; [2]): 0
- Giant foxtail plant response rating (giant foxtail; [3]): 0
- Plant response rating, Giant foxtail (giant foxtail; [4]): 0
- Giant foxtail plant response rating (giant foxtail; [5]): 6
- Giant foxtail plant response rating (giant foxtail; [6]): 8
- Plant response rating, Giant foxtail (giant foxtail; [7]): 10
- Plant response rating, Giant foxtail (giant foxtail; [8]): 10
- Plant response rating, Cocklebur (cocklebur; [1]): 0
- Cocklebur plant response rating (cocklebur; [2]): 0
- Cocklebur plant response rating (cocklebur; [3]): 0
- Plant response rating, Cocklebur (cocklebur; [4]): 0
- Cocklebur plant response rating (cocklebur; [5]): 0
- Cocklebur plant response rating (cocklebur; [6]): 0
- Plant response rating, Cocklebur (cocklebur; [7]): 0
- Plant response rating, Cocklebur (cocklebur; [8]): 0
- Plant response rating, S. Flatsedge (0 to 10 scale, 0 is no effect, 10 is complete control) (smallflower flatsedge; [9]): 0
- S. Flatsedge plant response rating (0 to 10 scale, 0 is no effect, 10 is complete control) (smallflower flatsedge; [10]): 0
- S. Flatsedge plant response rating (smallflower flatsedge; [11]): 0
- S. Flatsedge plant response rating (smallflower flatsedge; [12]): 0
- Plant response rating, Crabgrass (crabgrass; [1]): 0
- Crabgrass plant response rating (crabgrass; [2]): 0
- Crabgrass plant response rating (crabgrass; [3]): 0
- Plant response rating, Crabgrass (crabgrass; [4]): 6
- Crabgrass plant response rating (crabgrass; [5]): 0
- Crabgrass plant response rating (crabgrass; [6]): 3
- Plant response rating, Crabgrass (crabgrass; [7]): 9
- Plant response rating, Crabgrass (crabgrass; [8]): 10
